Here are results for five molecules from article PMC6131205, “Controlling the regioselectivity and stereospecificity of FAD-dependent polyamine oxidases with the use of amine-attached guide molecules as conformational modulators” (Bioscience Reports, 2018).

Where two headings read alike, the source gives them in different places.

The target in assay [1] is T1, human recombinant APAO (Homo sapiens, UniProt Q6QHF9).
T1 construct: made in house
The settings on record: cited from earlier work.

Assay [2] addresses T2, SMOX (Homo sapiens, UniProt Q9NWM0). Details: made in house; method as in PMID 17901051, PMID 16354669. Conditions: cited from earlier work.
Assay [3] concerns the target T3, Fms1 (Saccharomyces cerevisiae, UniProt P50264). Nature of the assay: Substrate kinetics with recombinant Fms1 (HPLC of reaction products).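 Also: recombinant polyamine oxidases incubated with substrate, product amines (putrescine, 1,3-diaminopropane or butane-1,3-diamine) quantified by HPLC after post-column o-phthalaldehyde derivatization.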
Procedure: HPLC with post-column o-phthalaldehyde-derivatization was used to determine the concentrations of the reaction products Put and 1,3-diaminopropane (DAP) or butane-1,3-diamine respectively as described in [30]. Fms1 activity was determined essentially as described for human recombinant APAO, but reactions were carried out in 100 mM Glycine-NaOH buffer at pH 9.0 in a water bath at +25°C [29, 30].
The reactions were carried out in 1 triplicate at pH 9.0 in 100 mM Glycine-NaOH at +25°C.
values for N -Ac-MeSpd enantiomers were determined by using substrate concentrations of 25, 50,
for Rac-MeSpd 30 min, (R)-MeSpd 20 min and (S)-MeSpd 40 minutes.
The reactions were carried out in triplicate at pH 9.0 in 100 mM Glycine-NaOH at +25°C.
values for MeSpd enantiomers were determined by using substrate concentrations of 100, 300, 600,
1000, 2000 and 4000 M. Recombinant Fms1 was 3.8 g/reaction and the incubation time 60
incubated for 30 min (half of the reaction time of an ordinary sample). E1 cleavage was monitored
by HPLC by measuring Put formation and E2 cleavage by determining butane-1,3-diamine content.
Assay [4] addresses T1, human recombinant APAO. Nature of the assay: Substrate kinetics with human recombinant APAO (HPLC of reaction products). It counts as biochemical. Conditions: 100 mM Glycine-NaOH pH 9.5, 5 mM DTT.
Assay [5] addresses T2, SMOX. The assay can be described thus: Substrate properties with human recombinant SMOX. The assay is classed as biochemical. Details: made in house. From the text:
Thus, developing specific inhibitors of SMOX is of crucial importance. In addition, the use of specific substrates for SMOX and APAO would enable distinguishing between APAO and SMOX enzyme activities in vivo.

The target of assay [6] is T2, SMOX. The assay can be described thus: Inhibition of SMOX (Ki, peroxidase-coupled fluorescence, Spm as substrate).
Procedure: Reaction mixtures contained 40 units/ml horseradish peroxidase (Roche), 1 mM homovanillic acid in 100 mM Glycine-NaOH at pH 9.0 supplemented with 40 ng of SMOX. […] Dilutions of fresh H2O2 were used as standard.
Assay [7] deals with amine oxidases in rat liver homogenates. Nature of the assay: Degradation in rat liver supernatant. It counts as in vitro ADME. Conditions: 20 μM MDL 72527, 5 min preincubation. How it is done:
A Wistar rat liver was frozen in liquid nitrogen. The liver was homogenized (1+3 w/v) with Teflon potter in buffer containing 25 mM Tris/HCl pH 7.4, 1 mM DTT and 0.1 mM EDTA. Resulting homogenate was centrifuged at 12000×g for 30 min at +4°C. Supernatant was divided into two portions and treated as follows: (A) incubated for 5 min at +37°C in a water bath, (B) supplemented with 20 μM MDL 72527 and incubated for 5 min at +37°C in a water bath to inactivate APAO and SMOX. A 20-μl aliquot of supernatant A or B was added in 100 mM Glycine-NaOH pH 9.5, 5 mM DTT with or without 100 μM of studied drug in a total volume of 180 μl. After 10-min incubation at +37°C, 20 μl of 50% sulphosalicylic acid (SSA) containing 100 μM diaminoheptane (DAH) was added to the reaction mixture. The samples were assayed with HPLC as described in [30].

The target in assay [8] is T3, Fms1. Details: made in house; method as in PMID 21067138. The settings on record: cited from earlier work.
Where [9] appears, read: 1 mM Spm, Glycine-NaOH buffer pH 9.0.

T1 sequence (Q6QHF9 whole entry): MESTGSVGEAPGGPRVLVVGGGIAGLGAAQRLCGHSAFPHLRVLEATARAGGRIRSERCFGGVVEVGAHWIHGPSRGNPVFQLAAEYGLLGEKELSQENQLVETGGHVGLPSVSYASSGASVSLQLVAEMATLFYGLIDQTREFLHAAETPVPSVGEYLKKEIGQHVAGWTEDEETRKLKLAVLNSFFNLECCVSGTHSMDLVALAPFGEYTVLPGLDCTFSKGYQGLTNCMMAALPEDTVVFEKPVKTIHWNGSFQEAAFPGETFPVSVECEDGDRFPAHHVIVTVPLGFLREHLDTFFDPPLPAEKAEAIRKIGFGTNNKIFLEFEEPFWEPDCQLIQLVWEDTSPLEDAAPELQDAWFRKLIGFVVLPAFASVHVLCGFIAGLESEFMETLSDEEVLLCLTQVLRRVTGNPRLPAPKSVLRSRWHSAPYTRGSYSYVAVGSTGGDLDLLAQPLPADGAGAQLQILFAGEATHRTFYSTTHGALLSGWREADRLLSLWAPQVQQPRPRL
T2 sequence (Q9NWM0 whole entry): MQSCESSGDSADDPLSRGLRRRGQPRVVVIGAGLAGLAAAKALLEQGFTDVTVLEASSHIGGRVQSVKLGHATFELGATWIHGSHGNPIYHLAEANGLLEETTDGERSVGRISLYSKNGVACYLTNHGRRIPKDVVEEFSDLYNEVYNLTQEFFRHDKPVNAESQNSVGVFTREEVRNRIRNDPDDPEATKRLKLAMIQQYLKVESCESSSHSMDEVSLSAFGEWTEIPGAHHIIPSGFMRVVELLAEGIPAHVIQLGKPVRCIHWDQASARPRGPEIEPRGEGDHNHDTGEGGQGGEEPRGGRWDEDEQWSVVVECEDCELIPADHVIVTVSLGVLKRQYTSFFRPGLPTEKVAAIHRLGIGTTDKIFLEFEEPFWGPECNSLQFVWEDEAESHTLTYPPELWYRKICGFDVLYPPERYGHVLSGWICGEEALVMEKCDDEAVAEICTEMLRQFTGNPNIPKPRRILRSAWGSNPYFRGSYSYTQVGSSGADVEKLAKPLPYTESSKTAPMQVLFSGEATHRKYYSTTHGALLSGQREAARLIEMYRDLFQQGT
T3 sequence (P50264 whole entry): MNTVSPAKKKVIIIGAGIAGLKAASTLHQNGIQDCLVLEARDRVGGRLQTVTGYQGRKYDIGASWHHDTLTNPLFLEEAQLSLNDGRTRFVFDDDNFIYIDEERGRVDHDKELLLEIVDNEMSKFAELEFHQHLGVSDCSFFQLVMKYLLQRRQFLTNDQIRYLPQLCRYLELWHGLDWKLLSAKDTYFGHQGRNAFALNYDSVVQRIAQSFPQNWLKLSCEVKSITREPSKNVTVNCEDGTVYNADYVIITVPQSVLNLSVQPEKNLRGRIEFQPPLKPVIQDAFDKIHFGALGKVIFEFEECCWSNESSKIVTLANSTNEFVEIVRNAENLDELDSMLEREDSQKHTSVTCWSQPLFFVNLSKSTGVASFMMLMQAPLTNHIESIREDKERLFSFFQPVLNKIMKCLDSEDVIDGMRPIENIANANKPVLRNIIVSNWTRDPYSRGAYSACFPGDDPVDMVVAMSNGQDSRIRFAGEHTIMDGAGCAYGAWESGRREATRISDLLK

On to `CC(N)CCNCCCCNCCC(C)N` [(S,S)-Me2Spm, 2,13-diamino-5,10-diazatetradecane], for which the “Specificity constant ratio SS/RR” value is 28 on human recombinant APAO [1] ((S,S)-Me2Spm vs (R,R)-Me2Spm); 454 on SMOX [2] ((S,S)-Me2Spm vs (R,R)-Me2Spm); 3.9 at Fms1 [3] (Fms1, (S,S)-Me2Spm vs (R,R)-Me2Spm). Besides, the “Specificity constant ratio SS/Spm” value was 7.1 at human recombinant APAO [1] ((S,S)-Me2Spm vs Spm); 2.1 at SMOX [2] ((S,S)-Me2Spm vs Spm); 0.07 at Fms1 [3] (Fms1, (S,S)-Me2Spm vs Spm).

Take `C[C@@H](CCNCCCCN)NCc1ccccc1` [Bn-(S)-MeSpd]: on human recombinant APAO [4], the Km came to 1.6 ± 0.6 µM, the maximum rate (Vmax) turned out to be 0.03 ± 0.00 µmol/min/mg and the kcat came to 0.03 ± 0.00 s⁻¹. Moreover, the “substrate of SMOX” value on SMOX [5] is given as “not being substrates of SMOX”. Besides, the affinity on SMOX [6] (Ki (best-fit value, noncompetitive inhibition), GraphPad Prism global fit, supplement) corresponds to a Ki of 155 µM. The same molecule displayed an inhibition constant (Ki) on SMOX [6] (Ki, non-competitive fit, 25, 50 or 100 µM Spm, pH 9.0, 37°C) of 155 ± 13 µM.

Take `C=C=CCNCCCCNCC=C=C` [MDL72527]: the “inhibition of analogue degradation in rat liver supernatant” value in assay [7] is reported as “Complete inhibition”.

As to `CC(=O)NCCCNCCCCNCCCN` [N^1-AcSpm], the kcat on Fms1 [8] was 15.1 ± 0.4 s⁻¹.

Consider `NCCCNCCCCNCCCN` [Spm, spermine, reference compound], for which the figures for the catalytic constant (kcat) at Fms1 [8] and at Fms1 [3] (setting [9]) were 39.0 ± 1.5 s⁻¹ and 30.3 ± 0.44 s⁻¹, respectively. Moreover, on Fms1 [3] (1 mM Spm, 100 mM Tris/HCl or 170 mM Bis/Tris buffers pH 9.0), the reaction velocity amounted to 36.1 ± 0.24 µmol/mg/min. Besides, the “pH of highest reaction velocity” value on Fms1 [3] (1 mM Spm, 170 mM Bis/Tris) came out at 9.25. For the same molecule, the “reaction velocity in comparison with rate at the optimum pH” value on Fms1 [3] (1 mM Spm, 170 mM Bis/Tris, pH 8.0) is recorded as ~ 15%; on Fms1 [3] (1 mM Spm, 170 mM Bis/Tris, pH 8.5), 60%. Besides, the “activity of recombinant Fms1” value on Fms1 [3] (setting [9]) was 30.9 ± 0.45 µmol/mg/min.

One may read the Km as the substrate concentration at which the rate is half of its maximum. By Vmax is commonly meant the top rate of the reaction or transport when substrate is in excess. Broadly, the kcat is the maximal rate divided by the concentration of active sites. By Ki is commonly meant the equilibrium dissociation constant of an inhibitor or competing ligand from its target. A lower Ki goes with higher affinity.
